# Source: patent US20230074545A1, “TREATMENT OF CANCER WITH CDK12/13 INHIBITORS” (Kinnate Biopharma Inc., priority 2019, published 2023)
# Tests used:
# Test in all cases: Radiometric kinase panel
# Format in all cases: biochemical
# [1] = molecular target: T1, PKCiota (Homo sapiens, UniProt P41743)
# T1 construct: either as full-length or enzymatically active fragments; purchased ProQinase GmbH (Reaction Biology)
# Procedure: (§1) The compounds 1-5 (see Table 1) were assayed for kinase activity at ProQinase (ProQinase GmbH, Reaction Biology; Freiburg, Germany) using their commercially available radiometric kinase assay services. Briefly, the compounds were provided as solids and were dissolved to 1×10^−03 M/100% DMSO stock solutions on the day of assay. All protein kinases were provided by ProQinase and were expressed in Sf9 insect cells or in E. coli as recombinant GST-fusion proteins or His-tagged proteins, either as full-length or enzymatically active fragments. All kinases were produced from human cDNAs and purified by either GSH-affinity chromatography or immobilized metal. The purity of the protein kinases was examined by SDS-PAGE/Coomassie staining, the identity was checked by mass spectroscopy. A radiometric protein kinase assay (^33PanQinase® Activity Assay) was used for measuring the kinase activity of the protein kinase. All kinase assays were performed in 96-well FlashPlates™ from PerkinElmer (Boston, Mass., USA) in a 50 microliter reaction volume. The reaction cocktail was pipetted in four steps in the following order: 1) 25 microliter of assay buffer (standard buffer/[gamma-^33P]-ATP); 2) 10 microliter of ATP solution (in H2O); 3) 5 microliter of test compound (in 10% DMSO); 4) 10 microliter of enzyme/substrate mixture.
# (§2) Compound 4 was analyzed for selectivity against a panel of other kinases at ProQinase using their commercially available radiometric kinase assay services and the methods described in Example 1.
# [2] = molecular target: T2, TTK (Homo sapiens, UniProt P33981)
# T2 construct: either as full-length or enzymatically active fragments; purchased ProQinase GmbH (Reaction Biology); host or cells: Sf9 insect cells or E. coli
# Procedure: as §1, §2
# [3] = molecular target: T3, WEE1 (Homo sapiens, UniProt P30291)
# T3 construct: either as full-length or enzymatically active fragments; purchased ProQinase GmbH (Reaction Biology)
# Procedure: as §1, §2
# [4] = molecular target: T4, ACVRL1 (Homo sapiens, UniProt P37023)
# T4 construct: either as full-length or enzymatically active fragments; purchased ProQinase GmbH (Reaction Biology)
# Procedure: as §1, §2
# [5] = molecular target: T5, HRI (Homo sapiens, UniProt Q9BQI3)
# T5 construct: either as full-length or enzymatically active fragments; purchased ProQinase GmbH (Reaction Biology)
# Procedure: as §1, §2
# [6] = molecular target: T6, p38gamma (Homo sapiens, UniProt P53778)
# T6 construct: either as full-length or enzymatically active fragments; purchased ProQinase GmbH (Reaction Biology); host or cells: Sf9 insect cells or E. coli (not specified per kinase)
# Procedure: as §1, §2
# [7] = molecular target: T7, GRK5 (Homo sapiens, UniProt P34947)
# T7 construct: either as full-length or enzymatically active fragments; purchased ProQinase GmbH (Reaction Biology)
# Procedure: as §1, §2
# [8] = molecular target: T8, PLK3 (Homo sapiens, UniProt Q9H4B4)
# T8 construct: either as full-length or enzymatically active fragments; purchased ProQinase GmbH (Reaction Biology); host or cells: Sf9 insect cells or E. coli
# Procedure: as §1, §2
# [9] = molecular target: T9, NLK (Homo sapiens, UniProt Q9UBE8)
# T9 construct: either as full-length or enzymatically active fragments; purchased ProQinase GmbH (Reaction Biology)
# Procedure: as §1, §2
# [10] = molecular target: T10, DCAMKL2 (Homo sapiens, UniProt Q8N568)
# T10 construct: purchased ProQinase GmbH (Reaction Biology); host or cells: Sf9 insect cells or E. coli (not specified per kinase)
# Procedure: as §1, §2
# [11] = molecular target: T11, EIF2AK3 (Homo sapiens, UniProt Q9NZJ5)
# T11 construct: either as full-length or enzymatically active fragments; purchased ProQinase GmbH (Reaction Biology); host or cells: Sf9 insect cells or E. coli
# Procedure: as §1, §2
# [12] = molecular target: T12, WNK2 (Homo sapiens, UniProt Q9Y3S1)
# T12 construct: either as full-length or enzymatically active fragments; purchased ProQinase GmbH (Reaction Biology)
# Procedure: as §1, §2
# [13] = molecular target: T13, NEK9 (Homo sapiens, UniProt Q8TD19)
# T13 construct: either as full-length or enzymatically active fragments; purchased ProQinase GmbH (Reaction Biology)
# Procedure: as §1, §2
# [14] = molecular target: T14, STK39 (Homo sapiens, UniProt Q9UEW8)
# T14 construct: either as full-length or enzymatically active fragments; purchased ProQinase GmbH (Reaction Biology)
# Procedure: as §1, §2
# [15] = molecular target: T15, AKT2 (Homo sapiens, UniProt P31751)
# T15 construct: either as full-length or enzymatically active fragments; purchased ProQinase GmbH (Reaction Biology); host or cells: Sf9 insect cells or E. coli (not specified per kinase)
# Procedure: as §1, §2
# [16] = molecular target: T16, SIK2 (Homo sapiens, UniProt Q9H0K1)
# T16 construct: either as full-length or enzymatically active fragments; purchased ProQinase GmbH (Reaction Biology)
# Procedure: as §1, §2
# [17] = molecular target: T17, AXL (Homo sapiens, UniProt P30530)
# T17 construct: either as full-length or enzymatically active fragments; purchased ProQinase GmbH (Reaction Biology)
# Procedure: as §1, §2
# [18] = molecular target: T18, S6Kbeta (Homo sapiens, UniProt Q9UBS0)
# T18 construct: purchased ProQinase GmbH (Reaction Biology); host or cells: Sf9 insect cells or E. coli (not specified per kinase)
# Procedure: as §1, §2
# [19] = molecular target: T19, PAK1 (Homo sapiens, UniProt Q13153)
# T19 construct: either as full-length or enzymatically active fragments; purchased ProQinase GmbH (Reaction Biology)
# Procedure: as §1, §2
# [20] = molecular target: T20, BTK (Homo sapiens, UniProt Q06187)
# T20 construct: purchased ProQinase GmbH (Reaction Biology); host or cells: Sf9 insect cells or E. coli (not specified per kinase)
# Procedure: as §1, §2
# [21] = molecular target: T21, CDK9/CycT1 (Homo sapiens, UniProt P50750)
# T21 construct: either as full-length or enzymatically active fragments; purchased ProQinase GmbH (Reaction Biology)
# Procedure: as §1, §2
# [22] = molecular target: T22, TAOK3 (Homo sapiens, UniProt Q9H2K8)
# T22 construct: either as full-length or enzymatically active fragments; purchased ProQinase GmbH (Reaction Biology)
# Procedure: as §1, §2
# [23] = molecular target: T23, COT (Homo sapiens, UniProt P41279)
# T23 construct: either as full-length or enzymatically active fragments; purchased ProQinase GmbH (Reaction Biology)
# Procedure: as §1, §2
# [24] = molecular target: T24, CDK6/CycD3 (Homo sapiens, UniProt Q00534)
# T24 construct: either as full-length or enzymatically active fragments; purchased ProQinase GmbH (Reaction Biology); host or cells: Sf9 insect cells or E. coli
# Procedure: as §1, §2
# [25] = molecular target: T25, PHKG1 (Homo sapiens, UniProt Q16816)
# T25 construct: either as full-length or enzymatically active fragments; purchased ProQinase GmbH (Reaction Biology)
# Procedure: as §1, §2
# [26] = molecular target: T26, MASTL (Homo sapiens, UniProt Q96GX5)
# T26 construct: either as full-length or enzymatically active fragments; purchased ProQinase GmbH (Reaction Biology); host or cells: Sf9 insect cells or E. coli (not specified per kinase)
# Procedure: as §1, §2
# [27] = molecular target: T27, PKCdelta (Homo sapiens, UniProt Q05655)
# T27 construct: purchased ProQinase GmbH (Reaction Biology)
# Procedure: as §1, §2
# [28] = molecular target: T28, TSF1 (Homo sapiens, UniProt O75716)
# T28 construct: either as full-length or enzymatically active fragments; purchased ProQinase GmbH (Reaction Biology)
# Procedure: as §1, §2
# [29] = molecular target: T29, FGFR2 (Homo sapiens, UniProt P21802)
# T29 construct: purchased ProQinase GmbH (Reaction Biology); host or cells: Sf9 insect cells or E. coli (not specified per kinase)
# Procedure: as §1, §2
# [30] = molecular target: T30, SYK (Homo sapiens, UniProt P43405)
# T30 construct: either as full-length or enzymatically active fragments; purchased ProQinase GmbH (Reaction Biology)
# Procedure: as §1, §2
# [31] = molecular target: T31, BMPR1B (Homo sapiens, UniProt O00238)
# T31 construct: either as full-length or enzymatically active fragments; purchased ProQinase GmbH (Reaction Biology)
# Procedure: as §1, §2
# T12 sequence (Q9Y3S1 whole entry, the tested form may be a part): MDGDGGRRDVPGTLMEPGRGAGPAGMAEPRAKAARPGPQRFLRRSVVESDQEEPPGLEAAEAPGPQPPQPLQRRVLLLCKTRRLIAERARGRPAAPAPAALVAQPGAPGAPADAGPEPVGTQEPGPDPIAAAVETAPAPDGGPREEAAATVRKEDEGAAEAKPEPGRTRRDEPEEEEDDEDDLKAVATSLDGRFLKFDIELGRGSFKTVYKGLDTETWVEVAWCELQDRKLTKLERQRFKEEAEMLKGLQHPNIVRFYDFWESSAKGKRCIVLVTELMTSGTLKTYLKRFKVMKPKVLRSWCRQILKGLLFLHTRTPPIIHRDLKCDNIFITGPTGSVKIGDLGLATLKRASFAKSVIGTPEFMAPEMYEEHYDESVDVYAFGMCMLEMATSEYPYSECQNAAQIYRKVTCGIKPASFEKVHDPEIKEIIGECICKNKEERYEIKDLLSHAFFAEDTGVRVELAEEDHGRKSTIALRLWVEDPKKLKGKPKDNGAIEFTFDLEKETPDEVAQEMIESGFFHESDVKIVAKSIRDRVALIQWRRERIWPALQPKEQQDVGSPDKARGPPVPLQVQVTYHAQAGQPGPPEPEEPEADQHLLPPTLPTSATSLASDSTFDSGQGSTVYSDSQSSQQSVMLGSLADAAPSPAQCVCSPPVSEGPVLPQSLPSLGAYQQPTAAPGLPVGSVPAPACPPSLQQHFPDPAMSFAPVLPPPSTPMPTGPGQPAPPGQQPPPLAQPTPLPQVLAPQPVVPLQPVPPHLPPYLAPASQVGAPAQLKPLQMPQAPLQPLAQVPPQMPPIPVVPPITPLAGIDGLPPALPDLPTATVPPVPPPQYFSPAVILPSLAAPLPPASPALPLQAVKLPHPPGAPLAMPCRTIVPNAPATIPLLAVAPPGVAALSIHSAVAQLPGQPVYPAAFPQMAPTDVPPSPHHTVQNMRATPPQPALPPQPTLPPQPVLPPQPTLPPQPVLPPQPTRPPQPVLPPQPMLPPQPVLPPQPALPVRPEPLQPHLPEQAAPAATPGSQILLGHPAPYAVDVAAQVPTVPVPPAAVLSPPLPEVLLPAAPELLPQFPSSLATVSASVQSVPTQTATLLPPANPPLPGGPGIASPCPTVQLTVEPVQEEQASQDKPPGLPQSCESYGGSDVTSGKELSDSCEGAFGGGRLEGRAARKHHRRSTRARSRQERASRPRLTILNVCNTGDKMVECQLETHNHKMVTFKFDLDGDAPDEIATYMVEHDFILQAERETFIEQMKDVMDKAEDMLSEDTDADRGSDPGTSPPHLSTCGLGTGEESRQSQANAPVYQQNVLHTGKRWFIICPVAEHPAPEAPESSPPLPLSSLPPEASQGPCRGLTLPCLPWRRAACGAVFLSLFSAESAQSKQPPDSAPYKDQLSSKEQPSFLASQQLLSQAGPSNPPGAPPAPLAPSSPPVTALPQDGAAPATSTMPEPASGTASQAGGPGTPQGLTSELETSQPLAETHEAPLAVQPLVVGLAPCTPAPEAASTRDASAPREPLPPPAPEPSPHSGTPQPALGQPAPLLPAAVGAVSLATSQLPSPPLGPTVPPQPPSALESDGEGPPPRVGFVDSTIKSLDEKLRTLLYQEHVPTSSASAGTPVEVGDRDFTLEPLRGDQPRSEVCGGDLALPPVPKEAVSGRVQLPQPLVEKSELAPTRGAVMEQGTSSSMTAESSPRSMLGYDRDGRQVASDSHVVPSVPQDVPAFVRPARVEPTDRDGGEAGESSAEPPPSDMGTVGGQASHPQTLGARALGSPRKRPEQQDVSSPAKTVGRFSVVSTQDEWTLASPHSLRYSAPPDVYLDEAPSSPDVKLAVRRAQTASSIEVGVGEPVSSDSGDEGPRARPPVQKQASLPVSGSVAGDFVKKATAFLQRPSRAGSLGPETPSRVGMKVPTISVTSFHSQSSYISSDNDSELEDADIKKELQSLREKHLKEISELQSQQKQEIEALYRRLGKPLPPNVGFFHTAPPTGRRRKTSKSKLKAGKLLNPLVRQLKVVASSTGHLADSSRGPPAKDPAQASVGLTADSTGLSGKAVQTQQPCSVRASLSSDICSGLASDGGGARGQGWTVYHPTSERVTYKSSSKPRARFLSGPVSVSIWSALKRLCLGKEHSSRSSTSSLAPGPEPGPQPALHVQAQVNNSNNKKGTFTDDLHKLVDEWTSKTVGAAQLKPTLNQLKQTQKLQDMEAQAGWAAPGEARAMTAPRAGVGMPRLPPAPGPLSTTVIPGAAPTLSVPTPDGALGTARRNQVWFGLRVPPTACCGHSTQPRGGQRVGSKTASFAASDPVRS
# T29 sequence (P21802 22-821): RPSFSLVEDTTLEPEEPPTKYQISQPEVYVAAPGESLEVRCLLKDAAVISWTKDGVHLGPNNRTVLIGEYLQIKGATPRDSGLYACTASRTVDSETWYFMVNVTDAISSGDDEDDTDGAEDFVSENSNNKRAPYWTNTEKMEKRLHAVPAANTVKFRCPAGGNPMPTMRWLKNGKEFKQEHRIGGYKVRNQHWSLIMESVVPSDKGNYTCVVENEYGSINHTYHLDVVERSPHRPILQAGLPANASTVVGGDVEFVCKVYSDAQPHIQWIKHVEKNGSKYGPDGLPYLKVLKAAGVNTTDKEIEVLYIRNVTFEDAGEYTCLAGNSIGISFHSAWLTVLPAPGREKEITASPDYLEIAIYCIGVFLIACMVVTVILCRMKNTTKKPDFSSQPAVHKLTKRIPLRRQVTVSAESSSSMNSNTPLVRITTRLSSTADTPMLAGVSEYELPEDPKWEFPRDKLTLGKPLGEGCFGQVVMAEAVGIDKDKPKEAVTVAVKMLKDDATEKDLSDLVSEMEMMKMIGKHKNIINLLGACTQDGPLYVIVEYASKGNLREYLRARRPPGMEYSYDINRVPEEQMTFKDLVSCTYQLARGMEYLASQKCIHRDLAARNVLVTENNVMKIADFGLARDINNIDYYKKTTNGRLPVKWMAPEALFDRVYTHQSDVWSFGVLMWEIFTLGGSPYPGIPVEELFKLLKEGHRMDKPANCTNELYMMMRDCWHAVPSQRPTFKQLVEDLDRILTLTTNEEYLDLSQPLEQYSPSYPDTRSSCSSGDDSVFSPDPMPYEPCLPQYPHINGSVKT
# T2 sequence (P33981 whole entry, the tested form may be a part): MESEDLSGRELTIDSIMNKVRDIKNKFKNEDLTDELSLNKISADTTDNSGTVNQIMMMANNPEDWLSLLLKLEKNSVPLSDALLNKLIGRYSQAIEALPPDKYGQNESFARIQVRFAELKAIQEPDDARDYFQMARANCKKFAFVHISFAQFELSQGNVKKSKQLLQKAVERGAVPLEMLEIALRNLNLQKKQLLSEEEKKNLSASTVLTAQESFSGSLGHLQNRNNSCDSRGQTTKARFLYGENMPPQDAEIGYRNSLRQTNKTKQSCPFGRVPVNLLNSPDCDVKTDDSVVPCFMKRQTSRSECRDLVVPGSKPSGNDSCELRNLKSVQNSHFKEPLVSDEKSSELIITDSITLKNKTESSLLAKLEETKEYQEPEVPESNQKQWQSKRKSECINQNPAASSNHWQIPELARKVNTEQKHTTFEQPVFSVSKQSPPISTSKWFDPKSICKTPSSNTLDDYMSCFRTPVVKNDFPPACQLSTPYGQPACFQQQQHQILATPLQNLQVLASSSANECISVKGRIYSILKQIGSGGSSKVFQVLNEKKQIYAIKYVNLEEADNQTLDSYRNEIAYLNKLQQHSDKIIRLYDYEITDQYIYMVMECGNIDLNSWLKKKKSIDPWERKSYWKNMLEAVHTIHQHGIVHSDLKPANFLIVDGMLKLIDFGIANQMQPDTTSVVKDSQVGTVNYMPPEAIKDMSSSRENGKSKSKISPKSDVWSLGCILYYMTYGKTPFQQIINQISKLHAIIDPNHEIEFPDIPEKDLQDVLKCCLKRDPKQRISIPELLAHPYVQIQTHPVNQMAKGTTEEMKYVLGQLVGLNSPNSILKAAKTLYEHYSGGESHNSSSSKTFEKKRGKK
# T20 sequence (Q06187 whole entry): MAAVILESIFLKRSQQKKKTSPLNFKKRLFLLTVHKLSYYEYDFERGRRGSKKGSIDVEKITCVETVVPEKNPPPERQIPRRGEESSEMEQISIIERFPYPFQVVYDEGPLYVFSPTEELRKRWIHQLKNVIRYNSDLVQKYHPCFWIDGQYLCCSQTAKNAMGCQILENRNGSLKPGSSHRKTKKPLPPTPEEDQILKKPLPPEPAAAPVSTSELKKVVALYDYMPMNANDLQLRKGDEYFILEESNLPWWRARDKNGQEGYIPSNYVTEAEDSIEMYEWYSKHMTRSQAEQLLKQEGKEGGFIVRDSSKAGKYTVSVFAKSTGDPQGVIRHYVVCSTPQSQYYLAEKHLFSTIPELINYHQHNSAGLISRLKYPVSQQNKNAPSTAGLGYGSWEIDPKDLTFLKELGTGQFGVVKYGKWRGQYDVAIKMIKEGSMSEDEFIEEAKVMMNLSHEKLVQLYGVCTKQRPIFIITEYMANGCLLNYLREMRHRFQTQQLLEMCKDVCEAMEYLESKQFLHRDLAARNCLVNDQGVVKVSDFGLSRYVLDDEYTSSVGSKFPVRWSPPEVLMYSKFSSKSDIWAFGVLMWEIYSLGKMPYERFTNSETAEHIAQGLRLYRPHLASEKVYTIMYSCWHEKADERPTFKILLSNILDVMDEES
# T4 sequence (P37023 22-503): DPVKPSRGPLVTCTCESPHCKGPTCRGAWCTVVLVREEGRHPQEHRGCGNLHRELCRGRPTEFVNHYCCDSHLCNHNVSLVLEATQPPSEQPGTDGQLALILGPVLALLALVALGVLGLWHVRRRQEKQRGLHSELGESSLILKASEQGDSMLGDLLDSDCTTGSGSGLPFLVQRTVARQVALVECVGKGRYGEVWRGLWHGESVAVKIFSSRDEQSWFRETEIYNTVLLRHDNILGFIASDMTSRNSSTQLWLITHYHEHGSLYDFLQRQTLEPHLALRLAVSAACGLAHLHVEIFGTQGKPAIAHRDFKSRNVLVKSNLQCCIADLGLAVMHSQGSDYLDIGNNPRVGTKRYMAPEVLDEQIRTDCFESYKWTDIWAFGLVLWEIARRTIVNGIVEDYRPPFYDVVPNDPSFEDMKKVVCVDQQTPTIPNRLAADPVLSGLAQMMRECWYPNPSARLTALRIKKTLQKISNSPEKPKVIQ
structure (smiles),measurement,setting,value
"C=CC(=O)Nc1ccc(C(=O)N2CC[C@@H](Nc3ncc(C#N)cn3)C2)cc1 [Compound 4, (R)-N-(4-(3-((5-cyanopyrimidin-2-yl)amino)pyrrolidine-1-carbonyl)phenyl)acrylamide]",inhibition at 1 µM,[1],-4%
same,inhibition at 1 µM,[2],12%
same,inhibition at 1 µM,[3],-5%
same,inhibition at 1 µM,[4],3%
same,inhibition at 1 µM,[5],-8%
same,inhibition at 1 µM,[6],10%
same,inhibition at 1 µM,[7],-6%
same,inhibition at 1 µM,[8],13%
same,inhibition at 1 µM,[9],4%
same,inhibition at 1 µM,[10],0%
same,inhibition at 1 µM,[11],14%
same,inhibition at 1 µM,[12],-8%
same,inhibition at 1 µM,[13],-5%
same,inhibition at 1 µM,[14],6%
same,inhibition at 1 µM,[15],11%
same,inhibition at 1 µM,[16],-4%
same,inhibition at 1 µM,[17],3%
same,inhibition at 1 µM,[18],1%
same,inhibition at 1 µM,[19],-6%
same,inhibition at 1 µM,[20],1%
same,inhibition at 1 µM,[21],27%
same,inhibition at 1 µM,[22],6%
same,inhibition at 1 µM,[23],6%
same,inhibition at 1 µM,[24],14%
same,inhibition at 1 µM,[25],18%
same,inhibition at 1 µM,[26],11%
same,inhibition at 1 µM,[27],-2%
same,inhibition at 1 µM,[28],6%
same,inhibition at 1 µM,[29],0%
same,inhibition at 1 µM,[30],2%
same,inhibition at 1 µM,[31],6%
